Publication PMC8086025, “A benzopyran with antiarrhythmic activity is an inhibitor of Kir3.1-containing potassium channels” (The Journal of Biological Chemistry, 2021)
“And” between values parts separate entries of the source, which are not always exact repeats. Equal entries are not always repeated. “Also recorded” adds a separate entry of the source.

Experiments:
IKACh = experiment: In vivo ECG, carbachol-induced heart rate slowing in anesthetized mice
Experimental: We tested the in vivo effects of BP-G1 versus those of BP-G1(SR) on heart rate in anesthetized adult mice (Fig. 8). ECG was continuously recorded. Panel A is the ECG showing that after carbachol (300 μl of 200 μM) was administered, i.p. (red mark), the heart decelerated, with a visible RR prolongation. About 10 min after carbachol injection, BP-G1 was delivered via the jugular vein (40 μl of 240 μM) (green mark). Within 5 min, there was a reversal of carbachol’s effects on the heart rate. Panel B is a control mouse showing heart rate slowing after carbachol administration (red mark).
Mice were anesthetized (1.5% isofluorane), and a 1.2 French octapolar catheter (Millar) with a drug delivery port was placed transvenously, through the jugular vein, into the right atrium. Continuous ECG was recorded using the Animal Bio Amp and PowerLab 4/35 Advanced Instruments apparatus. […] Saline control at the same volume was performed. Results are averages ±SD.

Histamine H2 = target: T1, Histamine H2 (Homo sapiens, UniProt P25021); experiment: Radioligand binding, [125I]APT; conditions: read-out: % Specific Binding at 10 µM
T1 construct: expressed in transfected cells; host or cells: CHO cells
T1 sequence (P25021 whole entry): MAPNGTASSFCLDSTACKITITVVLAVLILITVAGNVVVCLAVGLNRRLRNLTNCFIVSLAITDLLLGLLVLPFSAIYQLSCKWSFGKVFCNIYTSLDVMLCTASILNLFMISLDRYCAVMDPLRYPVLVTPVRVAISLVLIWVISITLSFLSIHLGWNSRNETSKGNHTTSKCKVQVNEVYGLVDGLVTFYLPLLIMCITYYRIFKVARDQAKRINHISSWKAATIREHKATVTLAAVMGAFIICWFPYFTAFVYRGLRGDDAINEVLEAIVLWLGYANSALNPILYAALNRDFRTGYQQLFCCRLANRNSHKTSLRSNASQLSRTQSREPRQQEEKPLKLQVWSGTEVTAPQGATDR

Neurokinin NK1 = target: T2, Neurokinin NK1 (Homo sapiens, UniProt P25103); experiment: Radioligand binding, [125I]-Substance P LYS3, U373MG uppsala; conditions: read-out: % Specific Binding at 10 µM
T2 construct: endogenous in cells; host or cells: U373MG uppsala
T2 sequence (P25103 whole entry): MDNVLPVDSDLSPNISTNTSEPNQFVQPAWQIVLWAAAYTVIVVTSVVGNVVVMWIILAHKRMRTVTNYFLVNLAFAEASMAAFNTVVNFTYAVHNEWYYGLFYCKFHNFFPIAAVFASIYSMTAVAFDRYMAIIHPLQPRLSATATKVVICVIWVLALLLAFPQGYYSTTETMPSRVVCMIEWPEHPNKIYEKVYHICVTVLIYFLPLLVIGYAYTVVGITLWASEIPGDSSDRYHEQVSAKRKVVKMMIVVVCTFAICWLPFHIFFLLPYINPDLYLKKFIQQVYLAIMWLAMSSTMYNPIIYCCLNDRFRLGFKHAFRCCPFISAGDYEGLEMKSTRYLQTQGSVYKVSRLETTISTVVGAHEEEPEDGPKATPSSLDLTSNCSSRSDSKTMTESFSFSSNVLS

Opioid Kappa = target: T3, Opioid Kappa (Rattus norvegicus, UniProt P34975); experiment: Radioligand binding, [3H]U 69593; conditions: read-out: % Specific Binding at 10 µM
T3 construct: expressed in transfected cells; host or cells: CHO cells
T3 sequence (P34975 whole entry): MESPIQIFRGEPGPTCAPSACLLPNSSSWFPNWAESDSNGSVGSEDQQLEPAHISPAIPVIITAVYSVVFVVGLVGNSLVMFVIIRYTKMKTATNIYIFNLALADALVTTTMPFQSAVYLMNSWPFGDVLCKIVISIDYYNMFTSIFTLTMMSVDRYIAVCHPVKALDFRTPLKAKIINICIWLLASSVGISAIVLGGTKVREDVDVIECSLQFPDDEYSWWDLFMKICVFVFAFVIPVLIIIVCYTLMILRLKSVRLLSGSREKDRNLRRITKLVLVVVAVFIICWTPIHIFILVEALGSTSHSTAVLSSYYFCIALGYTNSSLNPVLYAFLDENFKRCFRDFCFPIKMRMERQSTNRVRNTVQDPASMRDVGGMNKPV

5-HT2A = target: T4, 5-HT2A (Homo sapiens, UniProt P28223); experiment: Radioligand binding, [3H]ketanserin; conditions: read-out: % Specific Binding at 10 µM
T4 construct: expressed in transfected cells; host or cells: HEK-293 cells
T4 sequence (P28223 whole entry): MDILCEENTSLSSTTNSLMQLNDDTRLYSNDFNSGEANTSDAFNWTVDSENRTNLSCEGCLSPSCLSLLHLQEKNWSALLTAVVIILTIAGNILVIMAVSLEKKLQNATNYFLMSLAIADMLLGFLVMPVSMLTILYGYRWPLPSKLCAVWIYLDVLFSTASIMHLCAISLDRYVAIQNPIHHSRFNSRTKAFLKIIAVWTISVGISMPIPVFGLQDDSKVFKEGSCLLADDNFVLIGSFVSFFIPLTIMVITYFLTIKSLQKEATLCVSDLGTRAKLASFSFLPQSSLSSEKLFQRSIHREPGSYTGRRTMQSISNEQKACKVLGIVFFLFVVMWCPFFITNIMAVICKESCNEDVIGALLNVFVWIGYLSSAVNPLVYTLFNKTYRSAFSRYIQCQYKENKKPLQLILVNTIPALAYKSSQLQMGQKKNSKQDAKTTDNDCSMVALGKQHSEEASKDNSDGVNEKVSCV

[1] = target: T5, Non-steroid nuclear receptors PPARγ (Homo sapiens, UniProt P37231); experiment: Radioligand binding, [3H]rosiglitazone; conditions: read-out: % Specific Binding at 10 µM
T5 construct: purchased; host or cells: E. coli
T5 sequence (P37231 whole entry): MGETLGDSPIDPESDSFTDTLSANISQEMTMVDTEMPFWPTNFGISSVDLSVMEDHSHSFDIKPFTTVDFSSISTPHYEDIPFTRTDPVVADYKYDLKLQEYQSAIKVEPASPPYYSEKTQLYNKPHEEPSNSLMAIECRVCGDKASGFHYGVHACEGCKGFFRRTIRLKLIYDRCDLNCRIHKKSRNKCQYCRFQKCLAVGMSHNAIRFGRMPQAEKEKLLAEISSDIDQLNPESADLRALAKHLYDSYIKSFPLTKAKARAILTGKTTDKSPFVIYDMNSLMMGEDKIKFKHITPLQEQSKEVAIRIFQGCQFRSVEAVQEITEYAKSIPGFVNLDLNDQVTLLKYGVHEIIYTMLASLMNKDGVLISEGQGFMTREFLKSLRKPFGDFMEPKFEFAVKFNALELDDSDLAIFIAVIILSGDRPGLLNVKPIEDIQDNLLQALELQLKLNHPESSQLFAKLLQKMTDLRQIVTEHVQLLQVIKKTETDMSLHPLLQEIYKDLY

Ca = experiment: Radioligand binding; conditions: listed as Benzopyran-G1 (SR)
Nav = experiment: Radioligand binding, rat cerebral cortex
[2] = tested on: GABA Cl- channel (GABA-gated); experiment: Radioligand binding, [35S]TBPS; design: species or system rat; conditions: 10 µM; listed as Benzopyran-G1 (SR)
Dopamine transporter = target: T6, Dopamine transporter (Homo sapiens, UniProt Q01959); experiment: Radioligand binding, [3H]BTCP; conditions: 10 µM; read-out: % Specific Binding at 10 µM
T6 construct: expressed in transfected cells; host or cells: CHO cells
T6 sequence (Q01959 whole entry): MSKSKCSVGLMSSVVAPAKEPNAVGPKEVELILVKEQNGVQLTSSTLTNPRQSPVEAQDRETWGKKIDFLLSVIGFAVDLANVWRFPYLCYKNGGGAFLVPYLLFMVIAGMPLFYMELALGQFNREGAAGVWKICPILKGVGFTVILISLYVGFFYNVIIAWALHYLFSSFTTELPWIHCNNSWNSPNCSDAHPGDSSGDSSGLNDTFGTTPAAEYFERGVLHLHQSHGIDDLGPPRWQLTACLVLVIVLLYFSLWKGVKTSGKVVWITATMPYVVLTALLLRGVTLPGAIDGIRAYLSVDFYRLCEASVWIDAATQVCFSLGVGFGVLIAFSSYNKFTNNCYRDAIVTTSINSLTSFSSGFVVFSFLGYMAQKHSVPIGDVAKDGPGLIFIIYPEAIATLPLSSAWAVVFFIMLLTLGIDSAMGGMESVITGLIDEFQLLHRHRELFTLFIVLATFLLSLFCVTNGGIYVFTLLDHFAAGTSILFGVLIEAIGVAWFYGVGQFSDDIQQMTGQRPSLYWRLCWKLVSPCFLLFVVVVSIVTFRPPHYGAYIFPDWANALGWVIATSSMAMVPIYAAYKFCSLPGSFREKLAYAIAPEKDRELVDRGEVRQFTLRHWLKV

Kir3.1/2 channel = target: T7, Kir3.1/2 channel (UniProt P48542+P48549); experiment: TEVC in Xenopus oocytes, Kir3.1/2; type: cell-based, human Kir3.1, mouse Kir3.2; design: expressed in transfected cells; conditions: TEVC
T7 sequence (P48549 1-501): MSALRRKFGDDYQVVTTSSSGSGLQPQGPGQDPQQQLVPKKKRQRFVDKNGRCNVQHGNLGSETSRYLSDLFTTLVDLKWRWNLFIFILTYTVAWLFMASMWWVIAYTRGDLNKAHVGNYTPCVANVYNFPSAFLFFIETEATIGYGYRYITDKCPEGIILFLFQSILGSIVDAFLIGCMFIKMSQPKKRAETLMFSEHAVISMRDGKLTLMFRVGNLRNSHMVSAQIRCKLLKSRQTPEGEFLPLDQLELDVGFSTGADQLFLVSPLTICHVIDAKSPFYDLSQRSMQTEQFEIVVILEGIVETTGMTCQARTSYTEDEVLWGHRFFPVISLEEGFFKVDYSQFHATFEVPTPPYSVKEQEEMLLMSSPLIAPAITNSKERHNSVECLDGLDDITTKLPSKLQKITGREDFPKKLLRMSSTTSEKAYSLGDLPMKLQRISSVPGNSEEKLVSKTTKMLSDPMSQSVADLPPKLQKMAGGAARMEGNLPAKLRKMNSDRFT
T7 sequence (P48542 1-425): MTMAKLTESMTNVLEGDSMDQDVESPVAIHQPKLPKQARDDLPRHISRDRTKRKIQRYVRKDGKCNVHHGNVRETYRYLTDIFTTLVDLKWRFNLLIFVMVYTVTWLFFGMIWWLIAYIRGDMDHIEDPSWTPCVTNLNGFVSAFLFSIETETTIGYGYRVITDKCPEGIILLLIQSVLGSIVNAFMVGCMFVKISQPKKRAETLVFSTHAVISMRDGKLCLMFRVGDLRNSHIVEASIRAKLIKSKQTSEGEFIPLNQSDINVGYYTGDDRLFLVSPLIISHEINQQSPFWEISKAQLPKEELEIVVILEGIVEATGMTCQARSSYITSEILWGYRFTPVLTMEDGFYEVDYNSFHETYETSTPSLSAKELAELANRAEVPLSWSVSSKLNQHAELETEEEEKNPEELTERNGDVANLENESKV
Experimental: (§1) X. laevis oocytes were isolated and microinjected as previously described ([6]). Human Kir3.1, mouse Kir3.2, and human Kir3.4 DNA constructs were used for electrophysiology experiments. All cRNA constructs were injected in the amount of 2 ng per oocyte. Injected oocytes were incubated for 2 to 3 days at 18 °C to allow for expression. Whole-cell oocyte currents were then measured using a GeneClamp 500 amplifier (Axon Instruments). Microelectrodes had resistances of 0.5 to 1 megohm using a 3M KCl solution in 1.4% agarose. Oocytes were perfused with a low K^+ (LK) solution ND96 (2 mM KCl, 96 mM NaCl, 1 mM MgCl2, 1.8 mM CaCl2, 5 mM HEPES-Na) to establish a baseline for the recordings. Basal current was measured in a high potassium (HK) solution ND96K (96 mM KCl, 10 mM HEPES-K, 1 mM MgCl2, 1.8 mM CaCl2). To block the current, the oocyte chamber was perfused with 4 mM BaCl2 in ND96K. Only the Barium-sensitive current was used for statistical analysis. To measure the inhibitory activity of the channels, 1 μM BP-G1 in ND96K (HK) was used. Typically, oocytes were held at 0 mV (EK) and the current was monitored constantly using a ramp protocol with a command potential from −80 to +80 mV. Current amplitude was measured at the end of a 1 s sweep. All currents were analyzed when they reached steady state. Error bars in the figures represent SD (N > 4).

Kir3.1/4 channel = target: T8, Kir3.1/4 channel (Homo sapiens, UniProt P48544+P48549); experiment: TEVC in Xenopus oocytes, Kir3.1/4; type: cell-based; design: expressed in transfected cells; host or cells: Xenopus laevis oocytes (cRNA injection); conditions: 1 μM, TEVC
T8 sequence (P48549 1-501): T7 sequence (P48549 1-501)
T8 sequence (P48544 1-419): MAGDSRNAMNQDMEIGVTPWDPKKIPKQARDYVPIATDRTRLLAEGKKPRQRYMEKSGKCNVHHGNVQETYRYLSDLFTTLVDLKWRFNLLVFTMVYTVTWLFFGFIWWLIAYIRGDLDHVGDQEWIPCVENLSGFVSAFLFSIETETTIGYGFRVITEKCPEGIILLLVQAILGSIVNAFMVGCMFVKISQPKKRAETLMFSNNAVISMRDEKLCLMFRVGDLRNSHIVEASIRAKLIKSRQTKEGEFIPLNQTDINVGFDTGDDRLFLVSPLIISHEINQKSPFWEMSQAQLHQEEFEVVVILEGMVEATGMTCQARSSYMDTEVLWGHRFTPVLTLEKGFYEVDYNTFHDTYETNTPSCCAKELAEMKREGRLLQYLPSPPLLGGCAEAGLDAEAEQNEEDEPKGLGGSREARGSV
Experimental: as §1

Cc1cc(CO)nc2cc3c(cc12)OC(C)(C)[C@@H](O)[C@@H]3NCCc1ccccc1 [BP-G1(SR), (3S,4R)-7-(hydroxymethyl)-2,2,9-trimethyl-4-(2-phenylethylamino)-3,4-dihydropyrano[2,3-g]quinolin-3-ol]
RR interval 5 min after compound, given about 10 min after carbachol (IKACh; 40 μl of 240 μM via jugular vein, anesthetized mice, mean ± SD, N = 3): 551.6 ± 185 ms
heart rate recovery after carbachol (IKACh; 40 μl via jugular vein): the heart rate did not recover to baseline
inhibition at 10 µM (Histamine H2): 83.6%
inhibition at 10 µM (Neurokinin NK1): 64.2%
inhibition at 10 µM (Opioid Kappa): 31.3%
inhibition at 10 µM (5-HT2A): 46.4%
inhibition at 10 µM [1]: 58.3%
% Specific Binding at 10 µM (Ca): 28.633% and < 50%
% Specific Binding at 10 µM (Nav): 68.800%
% Specific Binding at 10 µM [2]: < 50%
inhibition at 10 µM (Dopamine transporter): 44.6%
inhibitory activity on Kir3.1/2 channel (Kir3.1/2 channel): nominally inhibits; also recorded: unable to effectively inhibit
inhibitory activity on Kir3.1/4 channel (Kir3.1/4 channel): nominally inhibits; also recorded: unable to effectively inhibit
